Laboratory results as given in US20190358181A1, “METHODS FOR AUTISM SPECTRUM DISORDER PHARMACOTHERAPY” (priority 2017, published 2019).

System: 610 metabolites from 63 biochemical pathways
Assay: Targeted broad-spectrum plasma metabolomic analysis (LC-MS/MS), paired pre-infusion vs post-infusion (2-days and 6-weeks)
Type: in vivo, human
Conditions: plasma, 2-days after infusion vs pre-infusion
Experimental: Targeted, broad-spectrum, plasma metabolomic analysis of 610 metabolites from 63 biochemical pathways was performed by high performance liquid chromatography and tandem mass spectrometry (LC-MS/MS) on the samples collected from patients in Example 1. Venous blood was collected between the hours of 8 am and 5 pm, at least 3 hours after the last meal, into lithium-heparin vacutainer tubes (BD #367884). Plasma was separated by centrifugation at 900 g×10 minutes at room temperature within one hour of collection. The resulting fresh lithium-heparin plasma was transferred to labeled 1.2 ml or 2.0 ml externally threaded cryotubes with a minimum headspace air gap for storage at −80° C. for analysis. Samples were analyzed on an AB SCIEX QTRAP 5500 triple quadrupole mass spectrometer equipped with a Turbo V electrospray ionization (ESI) source, Shimadzu LC-20A UHPLC system, and a PAL CTC autosampler. Typically, 90 μl of plasma was thawed on ice and transferred to a 1.7 ml Eppendorf tube. Five (5.0) μl of a cocktail containing 25-35 commercial stable isotope internal standards, and 5.0 μl of 57 stable isotope internal standards that were custom-synthesized in E. coli NCM3722, Caenorhabditis elegans N2, and Komagataella phaffii (ATCC 76273; formerly known as Pichia pastoris) by metabolic labeling with 13C-glucose and 13C-bicarbonate, were added, mixed, and incubated for 10 min at 20° C. to permit small molecules and vitamins in the internal standards to associate with plasma binding proteins. Macromolecules (protein, DNA, RNA, glycans, etc.) were precipitated by extraction with 4 volumes (400 μl) of cold (−20° C.), acetonitrile:methanol (50:50) (LCMS grade, Cat #LC015-2.5 and GC230-4, Burdick & Jackson, Honeywell), vortexed vigorously, and incubated on crushed ice for 10 min, then removed by centrifugation at 16,000 g×10 min at 4° C. The supernatants containing the extracted metabolites and internal standards in the resulting 40:40:20 solvent mix of acetonitrile:methanol:water were transferred to labeled cryotubes and stored at −80° C. for LCMS/MS analysis.
LC-MS/MS analysis was performed by scheduled multiple reaction monitoring (sMRM) under Analyst v1.6.2 software control in both negative and positive mode with rapid polarity switching (50 ms). Nitrogen was used for curtain gas (set to 30), collision gas (set to high), ion source gas 1 and 2 (set to 35). The source temperature was 500° C. Spray voltage was set to −4500 V in negative mode and 5500 V in positive mode. The values for Q1 and Q3 mass-to-charge ratios (m/z), declustering potential (DP), entrance potential (EP), collision energy (CE), and collision cell exit potential (CXP) were determined and optimized for each MRM for each metabolite. Ten microliters of extract was injected by PAL CTC autosampler via a 10 μl stainless steel loop into a 250 mm×2.0 mm, 4 μm polymer based NH2 HPLC column (Asahipak NH2P-40 2E, Showa Denko America, Inc., NY) held at 25° C. for chromatographic separation. The mobile phase was solvent A: 95% water with 20 mM (NH4)2CO3 (Sigma, Fluka Cat #74415-250G-F), 5% acetonitrile, and 38 mM NH4OH (Sigma, Fluka Cat #17837-100ML), final pH 9.75; solvent B: 100% acetonitrile. Separation was achieved using the following gradient: 0-3.5 min: 95% B, 3.6-8 min: 85% B, 8.1-13 min: 75% B, 13.5-35 min: 0% B, 36-46 min: 95% B, 46.1 min: end. The flow rate was 200 μl/min. Pump pressures ranged from 920-2600 psi over the course of the gradient. All the samples were kept at 4° C. during analysis. The chromatographic peaks were identified using MultiQuant (v3.0, Sciex), confirmed by manual inspection, and the peak areas integrated. […]

[1] = Cholesterol, Cortisol, Non-Gonadal Steroid Metabolism
[2] = Eicosanoid and Resolvin Metabolism
[3] = Fatty Acid Oxidation and Synthesis
[4] = GABA, Glutamate, Arginine, Ornithine, Proline Metabolism
[5] = Gamma-Glutamyl and other Dipeptides
[6] = Glycolysis and Gluconeogenesis Metabolism
[7] = Histidine, Histamine, Carnosine Metabolism
[8] = Nitric Oxide, Superoxide, Peroxide Metabolism

Cc1ccc(C(=O)Nc2ccc(S(=O)(=O)O)c3cc(S(=O)(=O)O)cc(S(=O)(=O)O)c23)cc1NC(=O)c1cccc(NC(=O)Nc2cccc(C(=O)Nc3cc(C(=O)Nc4ccc(S(=O)(=O)O)c5cc(S(=O)(=O)O)cc(S(=O)(=O)O)c45)ccc3C)c2)c1 [Suramin, suramin]
Z Abs, Ceramide(d18:1/18:2) (Ceramide Metabolism): 0.530
Z Score, Ceramide(d18:1/18:2) (Ceramide Metabolism): 0.530
Linear Ratio, 24,25-Epoxycholesterol [1]: 1.362
VIP Score, 24,25-Epoxycholesterol [1]: 1.807
Z Abs, 24,25-Epoxycholesterol [1]: 1.014
Z Score, 24,25-Epoxycholesterol [1]: 1.014
Linear Ratio, 5-HETE [2]: 0.866
Linear Ratio, 11(R)-HETE [2]: 0.748
Linear Ratio, 11,12-Epoxyeicosatrienoic acid [2]: 0.828
Linear Ratio, Prostaglandin J2 [2]: 0.649
VIP Score, 5-HETE [2]: 1.646
VIP Score, 11(R)-HETE [2]: 2.400
VIP Score, 11,12-Epoxyeicosatrienoic acid [2]: 1.535
VIP Score, Prostaglandin J2 [2]: 1.509
Z Abs, 5-HETE [2]: 0.671
Z Abs, 11(R)-HETE [2]: 0.875
Z Abs, 11,12-Epoxyeicosatrienoic acid [2]: 0.634
Z Abs, Prostaglandin J2 [2]: 0.601
Z Score, 5-HETE [2]: −0.671
Z Score, 11(R)-HETE [2]: −0.875
Z Score, 11,12-Epoxyeicosatrienoic acid [2]: −0.634
Z Score, Prostaglandin J2 [2]: −0.601
Linear Ratio, Anandamide (Endocannabinoid Metabolism): 0.684
VIP Score, Anandamide (Endocannabinoid Metabolism): 1.713
Z Abs, Anandamide (Endocannabinoid Metabolism): 0.709
Z Score, Anandamide (Endocannabinoid Metabolism): −0.709
Linear Ratio, Malonic acid [3]: 0.904
VIP Score, Malonic acid [3]: 1.833
Z Abs, Malonic acid [3]: 0.825
Z Score, Malonic acid [3]: −0.825
Linear Ratio, Gamma-Aminobutyric acid [4]: 1.068
Linear Ratio, L-Proline [4]: 1.155
Linear Ratio, N-Acetylglutamic acid [4]: 1.120
VIP Score, Gamma-Aminobutyric acid [4]: 1.626
VIP Score, L-Proline [4]: 1.548
VIP Score, N-Acetylglutamic acid [4]: 1.505
Z Abs, Gamma-Aminobutyric acid [4]: 1.101
Z Abs, L-Proline [4]: 0.603
Z Abs, N-Acetylglutamic acid [4]: 0.613
Z Score, Gamma-Aminobutyric acid [4]: 1.101
Z Score, L-Proline [4]: 0.603
Z Score, N-Acetylglutamic acid [4]: 0.613
Linear Ratio, Gamma-glutamyl-Alanine [5]: 1.294
Linear Ratio, Glycylproline [5]: 1.773
VIP Score, Gamma-glutamyl-Alanine [5]: 1.575
VIP Score, Glycylproline [5]: 2.205
Z Abs, Gamma-glutamyl-Alanine [5]: 0.896
Z Abs, Glycylproline [5]: 1.212
Z Score, Gamma-glutamyl-Alanine [5]: 0.896
Z Score, Glycylproline [5]: 1.212
Linear Ratio, 2,3-Diphosphoglyceric acid [6]: 1.198
Linear Ratio, Glycerol 3-phosphate [6]: 1.187
VIP Score, 2,3-Diphosphoglyceric acid [6]: 2.600
VIP Score, Glycerol 3-phosphate [6]: 1.651
Z Abs, 2,3-Diphosphoglyceric acid [6]: 0.990
Z Abs, Glycerol 3-phosphate [6]: 1.151
Z Score, 2,3-Diphosphoglyceric acid [6]: 0.990
Z Score, Glycerol 3-phosphate [6]: 1.151
Linear Ratio, GC(18:1/22:0) (Glycosphingolipid Metabolism): 1.399
VIP Score, GC(18:1/22:0) (Glycosphingolipid Metabolism): 2.123
Z Abs, GC(18:1/22:0) (Glycosphingolipid Metabolism): 1.057
Z Score, GC(18:1/22:0) (Glycosphingolipid Metabolism): 1.057
Linear Ratio, 1-Methylhistidine [7]: 1.145
VIP Score, 1-Methylhistidine [7]: 1.848
Z Abs, 1-Methylhistidine [7]: 0.899
Z Score, 1-Methylhistidine [7]: 0.899
Linear Ratio, Citramalic acid (Krebs Cycle): 1.121
Linear Ratio, Citric acid (Krebs Cycle): 1.142
VIP Score, Citramalic acid (Krebs Cycle): 1.704
VIP Score, Citric acid (Krebs Cycle): 1.590
Z Abs, Citramalic acid (Krebs Cycle): 1.229
Z Abs, Citric acid (Krebs Cycle): 0.759
Z Score, Citramalic acid (Krebs Cycle): 1.229
Z Score, Citric acid (Krebs Cycle): 0.759
Linear Ratio, 2-Keto-L-gluconate (Microbiome Metabolism): 1.264
Linear Ratio, Indoxyl sulfate (Microbiome Metabolism): 1.280
Linear Ratio, Shikimate-3-phosphate (Microbiome Metabolism): 1.047
Linear Ratio, p-Hydroxyphenylacetic acid (Microbiome Metabolism): 1.192
VIP Score, 2-Keto-L-gluconate (Microbiome Metabolism): 2.994
VIP Score, Indoxyl sulfate (Microbiome Metabolism): 1.858
VIP Score, Shikimate-3-phosphate (Microbiome Metabolism): 1.886
VIP Score, p-Hydroxyphenylacetic acid (Microbiome Metabolism): 2.546
Z Abs, 2-Keto-L-gluconate (Microbiome Metabolism): 2.586
Z Abs, Indoxyl sulfate (Microbiome Metabolism): 0.702
Z Abs, Shikimate-3-phosphate (Microbiome Metabolism): 1.033
Z Abs, p-Hydroxyphenylacetic acid (Microbiome Metabolism): 1.464
Z Score, 2-Keto-L-gluconate (Microbiome Metabolism): 2.586
Z Score, Indoxyl sulfate (Microbiome Metabolism): 0.702
Z Score, Shikimate-3-phosphate (Microbiome Metabolism): 1.033
Z Score, p-Hydroxyphenylacetic acid (Microbiome Metabolism): 1.464
Linear Ratio, Azelaic acid [8]: 0.914
VIP Score, Azelaic acid [8]: 1.929
Z Abs, Azelaic acid [8]: 2.024
